Test results reported in ChEMBL document CHEMBL4340528, “Profiling withanolide A for therapeutic targets in neurodegenerative diseases” (Bioorg Med Chem, 2019).

Legend:
[1] = test system: SH-SY5Y; assay: Induction of neurite outgrowth in human SH-SY5Y cells assessed as increase in neurite length of more than 50 micrometer by measuring cell differentiation at 1 uM incubated for 6 days by Giemsa staining based phase contrast microscopic analysis relative to control; assay type: functional
[2] = test system: SH-SY5Y; assay: Induction of neurite outgrowth in human SH-SY5Y cells assessed as increase in neurite length of more than 50 micrometer by measuring cell differentiation at 1 uM in presence of mifepristone incubated for 6 days by Giemsa staining based phase contrast microscopic analysis relative to control; assay type: functional
[3] = test system: SH-SY5Y; assay: Induction of neurite outgrowth in human SH-SY5Y cells assessed as increase in neurite length of more than 50 micrometer by measuring cell differentiation at 1 uM in presence of dexamethasone incubated for 6 days by Giemsa staining based phase contrast microscopic analysis relative to control; assay type: functional
[4] = target: MKI67 FHA domain-interacting nucleolar phosphoprotein (Homo sapiens) (UniProt Q9BYG3); conditions: A549, Lysate
Description: Binding affinity to MKI67 in human A549 cells lysates grown on SILAC media at 10 uM incubated for 1 hr by LC-MS/MS analysis relative to untreated control

[5] = target: Keratin, type II cuticular Hb1 (Homo sapiens) (UniProt Q14533); conditions: A549, Lysate, pooled result: one value given for 5 cell lines, strains, targets or settings
Description: Binding affinity to KRT81 in human A549 cells lysates grown on SILAC media at 10 uM incubated for 1 hr by LC-MS/MS analysis relative to untreated control

[6] = target: Mitochondrial carrier homolog 2 (Homo sapiens) (UniProt Q9Y6C9); conditions: A549, Lysate
Description: Binding affinity to MTCH2 in human A549 cells lysates grown on SILAC media at 10 uM incubated for 1 hr by LC-MS/MS analysis relative to untreated control

[7] = target: Glutathione S-transferase 3, mitochondrial (Homo sapiens) (UniProt O14880); conditions: A549, Lysate
Description: Binding affinity to MGST3 in human A549 cells lysates grown on SILAC media at 10 uM incubated for 1 hr by LC-MS/MS analysis relative to untreated control

[8] = target: Cytoskeleton-associated protein 4 (Homo sapiens) (UniProt Q07065); conditions: A549, Lysate
Description: Binding affinity to CKAP4 in human A549 cells lysates grown on SILAC media at 10 uM incubated for 1 hr by LC-MS/MS analysis relative to untreated control

[9] = target: Non-selective voltage-gated ion channel VDAC2 (Homo sapiens) (UniProt P45880); conditions: A549, Lysate
Description: Binding affinity to VDAC2 in human A549 cells lysates grown on SILAC media at 10 uM incubated for 1 hr by LC-MS/MS analysis relative to untreated control

[10] = target: Polyubiquitin-B (Homo sapiens) (UniProt P0CG47); conditions: A549, Lysate, pooled result: one value given for 5 cell lines, strains, targets or settings
Description: Binding affinity to UBB in human A549 cells lysates grown on SILAC media at 10 uM incubated for 1 hr by LC-MS/MS analysis relative to untreated control

[11] = target: Glutamate--cysteine ligase regulatory subunit (Homo sapiens) (UniProt P48507); conditions: A549, Lysate
Description: Binding affinity to GCLM in human A549 cells lysates grown on SILAC media at 10 uM incubated for 1 hr by LC-MS/MS analysis relative to untreated control

[12] = target: Heat shock protein beta-1 (Homo sapiens) (UniProt P04792); conditions: A549, Lysate
Description: Binding affinity to HSPB1 in human A549 cells lysates grown on SILAC media at 10 uM incubated for 1 hr by LC-MS/MS analysis relative to untreated control

[13] = target: WD repeat and HMG-box DNA-binding protein 1 (Homo sapiens) (UniProt O75717); conditions: A549, Lysate
Description: Binding affinity to WDHD1 in human A549 cells lysates grown on SILAC media at 10 uM incubated for 1 hr by LC-MS/MS analysis relative to untreated control

[14] = target: Cytochrome b5 type B (Homo sapiens) (UniProt O43169); conditions: A549, Lysate
Description: Binding affinity to CYB5B in human A549 cells lysates grown on SILAC media at 10 uM incubated for 1 hr by LC-MS/MS analysis relative to untreated control

[15] = target: Aldehyde dehydrogenase 1A1 (Homo sapiens) (UniProt P00352); conditions: A549, Lysate
Description: Binding affinity to ALDH1A1 in human A549 cells lysates grown on SILAC media at 10 uM incubated for 1 hr by LC-MS/MS analysis relative to untreated control

[16] = target: Aldo-keto reductase family 1 member C2 (Homo sapiens) (UniProt P52895); conditions: A549, Lysate
Description: Binding affinity to AKR1C2 in human A549 cells lysates grown on SILAC media at 10 uM incubated for 1 hr by LC-MS/MS analysis relative to untreated control

[17] = target: Non-selective voltage-gated ion channel VDAC3 (Homo sapiens) (UniProt Q9Y277); conditions: A549, Lysate
Description: Binding affinity to VDAC3 in human A549 cells lysates grown on SILAC media at 10 uM incubated for 1 hr by LC-MS/MS analysis relative to untreated control

[18] = target: Heterogeneous nuclear ribonucleoprotein F (Homo sapiens) (UniProt P52597); conditions: A549, Lysate
Description: Binding affinity to HNRNPF in human A549 cells lysates grown on SILAC media at 10 uM incubated for 1 hr by LC-MS/MS analysis relative to untreated control

[19] = target: Mitochondrial import receptor subunit TOM40 homolog (Homo sapiens) (UniProt O96008); conditions: A549, Lysate
Description: Binding affinity to TOMM40 in human A549 cells lysates grown on SILAC media at 10 uM incubated for 1 hr by LC-MS/MS analysis relative to untreated control

[20] = target: Serine/threonine-protein kinase greatwall (Homo sapiens) (UniProt Q96GX5); conditions: A549, Lysate
Description: Binding affinity to MASTL in human A549 cells lysates grown on SILAC media at 10 uM incubated for 1 hr by LC-MS/MS analysis relative to untreated control

[21] = target: Sarcoplasmic/endoplasmic reticulum calcium ATPase 2 (Homo sapiens) (UniProt P16615); conditions: A549, Lysate
Description: Binding affinity to ATP2A2 in human A549 cells lysates grown on SILAC media at 10 uM incubated for 1 hr by LC-MS/MS analysis relative to untreated control

[22] = target: Isocitrate dehydrogenase [NADP] cytoplasmic (Homo sapiens) (UniProt O75874); conditions: A549, Lysate
Description: Binding affinity to IDH1 in human A549 cells lysates grown on SILAC media at 10 uM incubated for 1 hr by LC-MS/MS analysis relative to untreated control

[23] = target: Transcription intermediary factor 1-beta (Homo sapiens) (UniProt Q13263); conditions: A549, Lysate
Description: Binding affinity to TRIM28 in human A549 cells lysates grown on SILAC media at 10 uM incubated for 1 hr by LC-MS/MS analysis relative to untreated control

[24] = target: Glucocorticoid receptor (Homo sapiens) (UniProt P04150); conditions: A549, Lysate
Description: Binding affinity to NR3C1 in human A549 cells lysates grown on SILAC media at 10 uM incubated for 1 hr by LC-MS/MS analysis relative to untreated control

[25] = target: Reticulon-4 (Homo sapiens) (UniProt Q9NQC3); conditions: A549, Lysate
Description: Binding affinity to RTN4 in human A549 cells lysates grown on SILAC media at 10 uM incubated for 1 hr by LC-MS/MS analysis relative to untreated control

[26] = target: Perilipin-3 (Homo sapiens) (UniProt O60664); conditions: A549, Lysate
Description: Binding affinity to PLIN3 in human A549 cells lysates grown on SILAC media at 10 uM incubated for 1 hr by LC-MS/MS analysis relative to untreated control

[27] = target: T1, 1,25-dihydroxyvitamin D(3) 24-hydroxylase, mitochondrial (Homo sapiens, UniProt Q07973); assay: Binding affinity to CYP24A1 in human A549 cells lysates grown on SILAC media at 10 uM incubated for 1 hr by LC-MS/MS analysis; assay type: subcellular, Lysate; conditions: a549, 1 h
T1 sequence (Q07973 whole entry): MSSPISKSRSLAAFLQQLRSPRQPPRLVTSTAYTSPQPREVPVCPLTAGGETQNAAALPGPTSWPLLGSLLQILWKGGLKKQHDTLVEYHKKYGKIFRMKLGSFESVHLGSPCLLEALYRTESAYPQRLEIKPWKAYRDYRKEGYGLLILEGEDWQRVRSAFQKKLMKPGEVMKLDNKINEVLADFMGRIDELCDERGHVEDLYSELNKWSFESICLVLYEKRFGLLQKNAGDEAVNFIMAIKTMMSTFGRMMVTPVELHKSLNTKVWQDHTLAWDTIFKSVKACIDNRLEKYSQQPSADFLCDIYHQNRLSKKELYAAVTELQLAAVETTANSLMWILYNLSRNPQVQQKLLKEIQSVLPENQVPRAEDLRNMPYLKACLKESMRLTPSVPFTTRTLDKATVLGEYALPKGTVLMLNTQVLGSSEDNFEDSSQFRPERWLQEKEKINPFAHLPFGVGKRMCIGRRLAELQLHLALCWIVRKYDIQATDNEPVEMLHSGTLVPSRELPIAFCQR

[28] = target: Prostaglandin E synthase 2 (Homo sapiens) (UniProt Q9H7Z7); conditions: A549, Lysate
Description: Binding affinity to PTGES2 in human A549 cells lysates grown on SILAC media at 10 uM incubated for 1 hr by LC-MS/MS analysis relative to untreated control

[29] = target: SAFB-like transcription modulator (Homo sapiens) (UniProt Q9NWH9); conditions: A549, Lysate
[30] = target: Minor histocompatibility antigen H13 (Homo sapiens) (UniProt Q8TCT9); conditions: A549, Lysate
Description: Binding affinity to HM13 in human A549 cells lysates grown on SILAC media at 10 uM incubated for 1 hr by LC-MS/MS analysis relative to untreated control

[31] = target: Histidine--tRNA ligase, cytoplasmic (Homo sapiens) (UniProt P12081); conditions: A549, Lysate
Description: Binding affinity to HARS in human A549 cells lysates grown on SILAC media at 10 uM incubated for 1 hr by LC-MS/MS analysis relative to untreated control

[32] = target: Ubiquitin carboxyl-terminal hydrolase 10 (Homo sapiens) (UniProt Q14694); conditions: A549, Lysate
Description: Binding affinity to USP10 in human A549 cells lysates grown on SILAC media at 10 uM incubated for 1 hr by LC-MS/MS analysis relative to untreated control

[33] = target: NPC intracellular cholesterol transporter 1 (Homo sapiens) (UniProt O15118); conditions: A549, Lysate
Description: Binding affinity to NPC1 in human A549 cells lysates grown on SILAC media at 10 uM incubated for 1 hr by LC-MS/MS analysis relative to untreated control

[34] = target: Mitochondrial antiviral-signaling protein (Homo sapiens) (UniProt Q7Z434); conditions: A549, Lysate
Description: Binding affinity to MAVS in human A549 cells lysates grown on SILAC media at 10 uM incubated for 1 hr by LC-MS/MS analysis relative to untreated control

[35] = target: Heme oxygenase 2 (Homo sapiens) (UniProt P30519); conditions: A549, Lysate
Description: Binding affinity to HMOX2 in human A549 cells lysates grown on SILAC media at 10 uM incubated for 1 hr by LC-MS/MS analysis relative to untreated control

[36] = target: von Willebrand factor (Homo sapiens) (UniProt P04275); conditions: A549, Lysate
Description: Binding affinity to VWF in human A549 cells lysates grown on SILAC media at 10 uM incubated for 1 hr by LC-MS/MS analysis relative to untreated control

[37] = target: Neutral cholesterol ester hydrolase 1 (Homo sapiens) (UniProt Q6PIU2); conditions: A549, Lysate
Description: Binding affinity to NCEH1 in human A549 cells lysates grown on SILAC media at 10 uM incubated for 1 hr by LC-MS/MS analysis relative to untreated control

[38] = target: Trifunctional enzyme subunit beta, mitochondrial (Homo sapiens) (UniProt P55084); conditions: A549, Lysate
Description: Binding affinity to HADHB in human A549 cells lysates grown on SILAC media at 10 uM incubated for 1 hr by LC-MS/MS analysis relative to untreated control

[39] = target: Glutathione S-transferase omega-1 (Homo sapiens) (UniProt P78417); conditions: A549, Lysate
Description: Binding affinity to GSTO1 in human A549 cells lysates grown on SILAC media at 10 uM incubated for 1 hr by LC-MS/MS analysis relative to untreated control

[40] = target: Antigen peptide transporter 1 (Homo sapiens) (UniProt Q03518); conditions: A549, Lysate
Description: Binding affinity to TAP1 in human A549 cells lysates grown on SILAC media at 10 uM incubated for 1 hr by LC-MS/MS analysis relative to untreated control

[41] = target: Carnitine O-palmitoyltransferase 1, liver isoform (Homo sapiens) (UniProt P50416); conditions: A549, Lysate
Description: Binding affinity to CPT1A in human A549 cells lysates grown on SILAC media at 10 uM incubated for 1 hr by LC-MS/MS analysis relative to untreated control

[42] = target: G patch domain-containing protein 8 (Homo sapiens) (UniProt Q9UKJ3); conditions: A549, Lysate
Description: Binding affinity to GPATCH8 in human A549 cells lysates grown on SILAC media at 10 uM incubated for 1 hr by LC-MS/MS analysis relative to untreated control

[43] = target: T1, 1,25-dihydroxyvitamin D(3) 24-hydroxylase, mitochondrial; assay: Binding affinity to CYP24A1 in human A549 cells lysates grown on SILAC media at 10 uM incubated for 1 hr by LC-MS/MS analysis relative to untreated control; assay type: subcellular, Lysate; conditions: a549, 1 h
[44] = target: Ubiquitin carboxyl-terminal hydrolase 5 (Homo sapiens) (UniProt P45974); conditions: A549, Lysate
Description: Binding affinity to USP5 in human A549 cells lysates grown on SILAC media at 10 uM incubated for 1 hr by LC-MS/MS analysis relative to untreated control

Sequence of Prostaglandin E synthase 2 (Homo sapiens) (Q9H7Z7 whole entry): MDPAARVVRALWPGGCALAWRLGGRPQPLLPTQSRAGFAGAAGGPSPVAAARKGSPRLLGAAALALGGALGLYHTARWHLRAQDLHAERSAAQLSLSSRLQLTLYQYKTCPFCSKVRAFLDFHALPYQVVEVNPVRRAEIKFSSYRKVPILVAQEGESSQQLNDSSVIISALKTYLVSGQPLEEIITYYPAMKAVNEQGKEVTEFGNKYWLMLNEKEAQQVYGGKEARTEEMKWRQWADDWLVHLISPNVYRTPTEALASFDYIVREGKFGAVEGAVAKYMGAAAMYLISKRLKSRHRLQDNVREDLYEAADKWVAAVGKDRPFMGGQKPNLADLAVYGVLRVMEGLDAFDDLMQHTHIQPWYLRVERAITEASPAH
Sequence of Glucocorticoid receptor (Homo sapiens) (P04150 whole entry): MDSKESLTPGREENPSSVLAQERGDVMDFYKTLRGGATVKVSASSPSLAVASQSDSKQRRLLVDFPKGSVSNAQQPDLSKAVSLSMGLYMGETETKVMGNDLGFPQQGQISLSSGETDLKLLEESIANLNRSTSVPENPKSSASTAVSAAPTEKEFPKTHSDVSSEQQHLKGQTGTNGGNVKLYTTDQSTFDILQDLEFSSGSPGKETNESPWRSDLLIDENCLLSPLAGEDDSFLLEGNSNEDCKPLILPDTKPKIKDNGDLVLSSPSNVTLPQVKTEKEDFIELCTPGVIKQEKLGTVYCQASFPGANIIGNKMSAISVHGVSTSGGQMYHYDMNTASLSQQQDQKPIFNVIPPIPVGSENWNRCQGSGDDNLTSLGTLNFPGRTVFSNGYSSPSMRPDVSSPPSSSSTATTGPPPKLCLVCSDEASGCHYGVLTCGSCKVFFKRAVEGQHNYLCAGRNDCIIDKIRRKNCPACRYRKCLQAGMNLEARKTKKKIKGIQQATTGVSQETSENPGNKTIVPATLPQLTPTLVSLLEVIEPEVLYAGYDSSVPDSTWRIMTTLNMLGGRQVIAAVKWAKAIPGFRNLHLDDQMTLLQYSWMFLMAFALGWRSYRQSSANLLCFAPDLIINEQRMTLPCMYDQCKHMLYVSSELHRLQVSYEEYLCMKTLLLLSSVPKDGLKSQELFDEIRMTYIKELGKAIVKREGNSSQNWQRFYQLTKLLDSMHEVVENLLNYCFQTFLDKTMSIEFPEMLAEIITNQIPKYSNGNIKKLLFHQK
Sequence of Sarcoplasmic/endoplasmic reticulum calcium ATPase 2 (Homo sapiens) (P16615 whole entry): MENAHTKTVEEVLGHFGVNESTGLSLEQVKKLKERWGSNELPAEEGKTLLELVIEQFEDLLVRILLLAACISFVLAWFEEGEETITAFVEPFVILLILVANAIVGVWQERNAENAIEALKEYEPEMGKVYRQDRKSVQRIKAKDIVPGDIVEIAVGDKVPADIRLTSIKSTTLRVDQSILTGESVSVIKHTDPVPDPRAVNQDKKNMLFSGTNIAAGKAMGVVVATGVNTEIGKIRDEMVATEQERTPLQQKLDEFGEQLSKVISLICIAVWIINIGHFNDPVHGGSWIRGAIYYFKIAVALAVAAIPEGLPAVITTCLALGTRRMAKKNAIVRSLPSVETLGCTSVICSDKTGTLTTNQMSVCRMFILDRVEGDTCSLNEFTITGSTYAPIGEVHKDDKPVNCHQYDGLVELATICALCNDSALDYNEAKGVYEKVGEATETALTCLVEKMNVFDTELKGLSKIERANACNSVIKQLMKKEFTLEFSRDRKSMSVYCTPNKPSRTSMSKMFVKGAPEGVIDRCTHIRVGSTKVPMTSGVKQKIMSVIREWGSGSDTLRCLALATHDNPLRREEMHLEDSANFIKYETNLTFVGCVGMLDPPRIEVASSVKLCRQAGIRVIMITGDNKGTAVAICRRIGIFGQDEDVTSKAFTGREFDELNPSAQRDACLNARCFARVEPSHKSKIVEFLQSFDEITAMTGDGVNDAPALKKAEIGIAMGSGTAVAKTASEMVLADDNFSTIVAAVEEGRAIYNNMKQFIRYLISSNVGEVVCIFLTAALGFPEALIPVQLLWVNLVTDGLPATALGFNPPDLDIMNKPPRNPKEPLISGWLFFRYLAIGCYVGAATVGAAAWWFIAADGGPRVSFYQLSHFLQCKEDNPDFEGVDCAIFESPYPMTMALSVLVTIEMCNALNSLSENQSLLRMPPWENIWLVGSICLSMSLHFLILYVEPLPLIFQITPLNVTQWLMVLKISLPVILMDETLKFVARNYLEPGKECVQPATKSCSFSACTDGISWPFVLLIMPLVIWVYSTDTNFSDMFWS
Sequence of Minor histocompatibility antigen H13 (Homo sapiens) (Q8TCT9 whole entry): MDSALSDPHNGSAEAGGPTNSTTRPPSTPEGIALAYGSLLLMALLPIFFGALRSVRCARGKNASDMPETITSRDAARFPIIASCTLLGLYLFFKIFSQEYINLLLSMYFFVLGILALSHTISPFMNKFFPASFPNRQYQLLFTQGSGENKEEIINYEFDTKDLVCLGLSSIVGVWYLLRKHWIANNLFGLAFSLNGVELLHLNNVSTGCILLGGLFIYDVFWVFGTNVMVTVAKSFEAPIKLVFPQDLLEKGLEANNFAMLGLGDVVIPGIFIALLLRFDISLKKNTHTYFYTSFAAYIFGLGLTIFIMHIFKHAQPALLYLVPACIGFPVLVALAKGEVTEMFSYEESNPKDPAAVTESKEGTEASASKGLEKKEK
Sequence of Mitochondrial import receptor subunit TOM40 homolog (Homo sapiens) (O96008 whole entry): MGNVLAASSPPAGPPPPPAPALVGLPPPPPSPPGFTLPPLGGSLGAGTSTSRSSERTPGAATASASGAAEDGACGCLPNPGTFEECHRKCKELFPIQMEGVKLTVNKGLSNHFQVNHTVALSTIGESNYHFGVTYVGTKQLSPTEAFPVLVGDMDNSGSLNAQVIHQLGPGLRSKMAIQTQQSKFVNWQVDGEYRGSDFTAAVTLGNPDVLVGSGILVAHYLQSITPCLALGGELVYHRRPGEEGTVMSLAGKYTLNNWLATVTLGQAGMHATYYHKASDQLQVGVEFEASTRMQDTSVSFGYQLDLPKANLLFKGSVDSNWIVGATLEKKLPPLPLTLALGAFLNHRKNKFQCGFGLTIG
Sequence of Mitochondrial carrier homolog 2 (Homo sapiens) (Q9Y6C9 whole entry): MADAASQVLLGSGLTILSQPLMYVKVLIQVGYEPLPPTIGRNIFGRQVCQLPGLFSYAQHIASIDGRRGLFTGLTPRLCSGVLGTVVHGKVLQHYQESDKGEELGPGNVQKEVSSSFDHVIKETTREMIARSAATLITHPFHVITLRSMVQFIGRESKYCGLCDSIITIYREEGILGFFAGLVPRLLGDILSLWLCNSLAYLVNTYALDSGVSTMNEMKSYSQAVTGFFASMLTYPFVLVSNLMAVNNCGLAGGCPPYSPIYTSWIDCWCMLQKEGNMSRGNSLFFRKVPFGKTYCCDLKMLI
Sequence of Non-selective voltage-gated ion channel VDAC2 (Homo sapiens) (P45880 whole entry): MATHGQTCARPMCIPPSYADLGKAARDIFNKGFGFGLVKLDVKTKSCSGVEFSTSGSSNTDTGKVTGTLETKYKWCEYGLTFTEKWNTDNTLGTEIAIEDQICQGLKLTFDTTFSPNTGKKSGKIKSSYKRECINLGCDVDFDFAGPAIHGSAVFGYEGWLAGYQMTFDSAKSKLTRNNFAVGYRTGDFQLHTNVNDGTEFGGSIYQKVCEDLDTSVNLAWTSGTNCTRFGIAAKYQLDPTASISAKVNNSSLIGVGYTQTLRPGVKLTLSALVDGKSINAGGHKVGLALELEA
Sequence of Cytoskeleton-associated protein 4 (Homo sapiens) (Q07065 whole entry): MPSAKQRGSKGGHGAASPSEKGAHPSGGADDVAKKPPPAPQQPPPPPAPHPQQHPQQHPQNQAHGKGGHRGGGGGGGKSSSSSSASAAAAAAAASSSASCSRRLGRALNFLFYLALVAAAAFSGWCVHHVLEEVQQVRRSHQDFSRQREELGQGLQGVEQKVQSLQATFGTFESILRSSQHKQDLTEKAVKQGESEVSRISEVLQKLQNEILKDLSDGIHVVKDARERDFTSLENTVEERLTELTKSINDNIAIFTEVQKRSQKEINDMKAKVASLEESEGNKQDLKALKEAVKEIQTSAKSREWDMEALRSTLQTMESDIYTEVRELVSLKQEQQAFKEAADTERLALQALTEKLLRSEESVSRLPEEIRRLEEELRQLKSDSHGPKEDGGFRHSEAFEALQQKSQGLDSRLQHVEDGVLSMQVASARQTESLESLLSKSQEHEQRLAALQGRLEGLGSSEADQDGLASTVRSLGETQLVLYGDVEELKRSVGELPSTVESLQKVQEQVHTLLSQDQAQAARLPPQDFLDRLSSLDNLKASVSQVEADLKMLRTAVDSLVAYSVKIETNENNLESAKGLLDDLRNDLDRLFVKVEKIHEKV
Sequence of Cytochrome b5 type B (Homo sapiens) (O43169 whole entry): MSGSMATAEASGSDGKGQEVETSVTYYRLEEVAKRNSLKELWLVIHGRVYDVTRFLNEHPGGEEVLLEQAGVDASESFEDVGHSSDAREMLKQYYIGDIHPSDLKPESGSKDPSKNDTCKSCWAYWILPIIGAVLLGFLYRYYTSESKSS
Sequence of Non-selective voltage-gated ion channel VDAC3 (Homo sapiens) (Q9Y277 whole entry): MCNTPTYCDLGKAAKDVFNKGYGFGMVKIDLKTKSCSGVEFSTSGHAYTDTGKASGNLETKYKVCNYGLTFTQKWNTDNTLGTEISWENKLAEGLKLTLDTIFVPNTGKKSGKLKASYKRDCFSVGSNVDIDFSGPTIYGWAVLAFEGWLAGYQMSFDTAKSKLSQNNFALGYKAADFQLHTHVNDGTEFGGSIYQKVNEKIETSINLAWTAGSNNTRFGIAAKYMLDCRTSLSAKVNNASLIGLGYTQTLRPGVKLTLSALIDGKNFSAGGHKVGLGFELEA
Sequence of Glutathione S-transferase 3, mitochondrial (Homo sapiens) (O14880 whole entry): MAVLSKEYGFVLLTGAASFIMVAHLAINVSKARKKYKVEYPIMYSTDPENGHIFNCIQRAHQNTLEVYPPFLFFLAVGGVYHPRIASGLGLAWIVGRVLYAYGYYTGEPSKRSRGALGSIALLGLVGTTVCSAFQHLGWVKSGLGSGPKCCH
Sequence of Heat shock protein beta-1 (Homo sapiens) (P04792 whole entry): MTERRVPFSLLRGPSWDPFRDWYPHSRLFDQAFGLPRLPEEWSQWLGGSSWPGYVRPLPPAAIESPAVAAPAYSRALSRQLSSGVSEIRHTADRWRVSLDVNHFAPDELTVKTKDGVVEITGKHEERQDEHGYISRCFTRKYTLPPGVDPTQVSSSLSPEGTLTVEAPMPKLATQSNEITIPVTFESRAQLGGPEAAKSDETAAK

Structure (SMILES): C[C@@H]1C[C@H]2[C@@H]3CCC4=CC(=O)C=C[C@]4(C)[C@@]3(F)[C@@H](O)C[C@]2(C)[C@@]1(O)C(=O)CO [DEXAMETHASONE]
- Activity [1]: 16%

Structure (SMILES): CC1=C(/C=C/C(C)=C/C=C/C(C)=C/C(=O)O)C(C)(C)CCC1 [TRETINOIN]
- Activity [1]: 45%

Structure (SMILES): C#CCO/N=C1\CCC[C@]2(O)[C@H]3O[C@H]3[C@H]3[C@@H]4CC[C@H]([C@@](C)(O)[C@H]5CC(C)=C(C)C(=O)O5)[C@@]4(C)CC[C@@H]3[C@@]12C
- Activity [1]: 48%

Structure (SMILES): CC1=C(C)C(=O)O[C@@H]([C@](C)(O)[C@H]2CC[C@H]3[C@@H]4[C@@H]5O[C@@H]5[C@@]5(O)CC=CC(=O)[C@]5(C)[C@H]4CC[C@]23C)C1 [WITHANOLIDE A]
- Activity [2]: 47%
- Activity [3]: 46%
- Activity [1]: 46%

Structure (SMILES): C#CCOC(=O)/C(C)=C(C)\C=C\[C@](C)(O)[C@H]1CC[C@H]2[C@@H]3[C@@H]4O[C@@H]4C4=CC=CC(=O)[C@]4(C)[C@H]3CC[C@@]21C
- log2FC [4]: 1.89
- log2FC [5]: 3.66
- log2FC [6]: 2.11
- log2FC [7]: 3.04
- Activity [2]: 44%
- log2FC [8]: 1.79
- log2FC [9]: 4.38
- log2FC [10]: 1.47
- log2FC [11]: 2.81
- log2FC [12]: 2.14
- log2FC [13]: 1.74
- log2FC [14]: 4.61
- log2FC [15]: 1.25
- log2FC [16]: 1.02
- log2FC [17]: 2.96
- log2FC [18]: 1.88
- log2FC [19]: 2.05
- log2FC [20]: 1.28
- log2FC [21]: 4.85
- log2FC [22]: 2.46
- Activity [3]: 40%
- Activity [1]: 41%
- log2FC [23]: 2.45
- log2FC [24]: 2.03

Structure (SMILES): CC#C[C@]1(O)CC[C@H]2[C@@H]3CCC4=CC(=O)CCC4=C3[C@@H](c3ccc(N(C)C)cc3)C[C@@]21C [MIFEPRISTONE]
- Activity [1]: 50%

Structure (SMILES): C#CCO/N=C1\C=CC[C@]2(O)[C@H]3O[C@H]3[C@H]3[C@@H]4CC[C@H]([C@@](C)(O)[C@H]5CC(C)=C(C)C(=O)O5)[C@@]4(C)CC[C@@H]3[C@@]12C
- log2FC [25]: 3.73
- Activity [2]: 33%
- log2FC [26]: 0.964
- log2FC [14]: 7.33
- Activity [27]: Active
- log2FC [28]: 1.16
- log2FC [29]: 2.27
- Activity [3]: 37%
- Activity [1]: 58%
- log2FC [30]: 2.25

Structure (SMILES): C#CCOC(=O)/C(C)=C(C)\C=C\[C@](C)(O)[C@H]1CC[C@H]2[C@@H]3[C@@H]4O[C@@H]4[C@@]4(O)CC=CC(=O)[C@]4(C)[C@H]3CC[C@@]21C
- log2FC [31]: 1.86
- log2FC [25]: 8.71
- log2FC [32]: 1.27
- log2FC [33]: 2.08
- log2FC [34]: 1.62
- log2FC [6]: 1.38
- Activity [2]: 40%
- log2FC [8]: 2.99
- log2FC [35]: 7.1
- log2FC [36]: 1.63
- log2FC [9]: 3.01
- log2FC [37]: 1.16
- log2FC [38]: 3.09
- log2FC [39]: 3.99
- log2FC [40]: 2.34
- Activity [27]: Active
- log2FC [17]: 1.18
- log2FC [28]: 4.11
- log2FC [19]: 2.16
- log2FC [41]: 1.41
- log2FC [42]: 2.25
- log2FC [21]: 3.3
- log2FC [43]: 1.875
- log2FC [44]: 1.08
- Activity [3]: 38%
- Activity [1]: 40%
- log2FC [30]: 3.52
- log2FC [24]: 1.96

Structure (SMILES): C#CCO/N=C1/CC[C@]2(C)[C@H]3CC[C@]4(C)[C@@H]([C@@](C)(O)[C@H]5CC(C)=C(C)C(=O)O5)CC[C@H]4[C@@H]3[C@@H]3O[C@@H]3[C@@]2(O)C1
- Activity [1]: 50%

Structure (SMILES): C#CCO/N=C1/C=C[C@]2(C)[C@H]3CC[C@]4(C)[C@@H]([C@@](C)(O)[C@H]5CC(C)=C(C)C(=O)O5)CC[C@H]4[C@@H]3[C@@H]3O[C@@H]3[C@@]2(O)C1
- Activity [1]: 55%
